Data taken from PubChem BioAssay (NCI).
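How tested: cells in 96-well plates exposed to compound for 48 hours at five concentrations. TGI: total growth inhibition.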

Assays:
Assay in all cases: growth of human tumour cells (NCI), 48 h
OVCAR-4 ovarian = tested on: OVCAR-4 ovarian
RPMI-8226 leukemia = tested on: RPMI-8226 leukemia
NCI-H23 lung = tested on: NCI-H23 lung
SF-295 CNS = tested on: SF-295 CNS
HCC-2998 colon = tested on: HCC-2998 colon
CAKI-1 renal = tested on: CAKI-1 renal
HS 578T breast = tested on: HS 578T breast
MDA-MB-435 = tested on: MDA-MB-435
IGROV1 ovarian = tested on: IGROV1 ovarian
HCT-15 colon = tested on: HCT-15 colon
OVCAR-5 ovarian = tested on: OVCAR-5 ovarian
SF-539 CNS = tested on: SF-539 CNS
HCT-116 colon = tested on: HCT-116 colon
PC-3 prostate = tested on: PC-3 prostate
MALME-3M melanoma = tested on: MALME-3M melanoma
MDA-N = tested on: MDA-N
COLO 205 colon = tested on: COLO 205 colon
OVCAR-8 ovarian = tested on: OVCAR-8 ovarian
BT-549 breast = tested on: BT-549 breast
KM12 colon = tested on: KM12 colon
ACHN renal = tested on: ACHN renal
SK-MEL-2 melanoma = tested on: SK-MEL-2 melanoma
OVCAR-3 ovarian = tested on: OVCAR-3 ovarian
UACC-257 melanoma = tested on: UACC-257 melanoma
RXF 393 renal = tested on: RXF 393 renal
K-562 leukemia = tested on: K-562 leukemia
SK-MEL-28 melanoma = tested on: SK-MEL-28 melanoma
MCF7 breast = tested on: MCF7 breast
SN12C renal = tested on: SN12C renal
NCI-H460 lung = tested on: NCI-H460 lung
SNB-75 CNS = tested on: SNB-75 CNS
U251 CNS = tested on: U251 CNS
T-47D breast = tested on: T-47D breast
SF-268 CNS = tested on: SF-268 CNS
MDA-MB-231 breast = tested on: MDA-MB-231 breast
HOP-92 NSCLC = tested on: HOP-92 NSCLC
DU-145 prostate = tested on: DU-145 prostate
SW-620 colon = tested on: SW-620 colon
NCI-H226 lung = tested on: NCI-H226 lung
SK-MEL-5 melanoma = tested on: SK-MEL-5 melanoma
UO-31 renal = tested on: UO-31 renal
786-0 renal = tested on: 786-0 renal
HOP-62 NSCLC = tested on: HOP-62 NSCLC
TK-10 renal = tested on: TK-10 renal
A498 renal = tested on: A498 renal
EKVX NSCLC = tested on: EKVX NSCLC
NCI/ADR-RES ovarian = tested on: NCI/ADR-RES ovarian
NCI-H522 lung = tested on: NCI-H522 lung
M14 melanoma = tested on: M14 melanoma
UACC-62 melanoma = tested on: UACC-62 melanoma
A549 NSCLC = tested on: A549 NSCLC
HT29 colon = tested on: HT29 colon
SK-OV-3 ovarian = tested on: SK-OV-3 ovarian
SNB-19 CNS = tested on: SNB-19 CNS
LOX IMVI melanoma = tested on: LOX IMVI melanoma
HL-60(TB) leukemia = tested on: HL-60(TB) leukemia
CCRF-CEM leukemia = tested on: CCRF-CEM leukemia
SR leukemia = tested on: SR leukemia
MOLT-4 leukemia = tested on: MOLT-4 leukemia

With `CC1=NN(c2ccccc2Cl)C2(C1)SCC(=O)N2c1nc2ccccc2s1` (stereo unspecified) the TGI (OVCAR-4 ovarian) was > 100 µM, the TGI (RPMI-8226 leukemia) was > 100 µM and the TGI (NCI-H23 lung) was > 100 µM. The TGI (SF-295 CNS) was > 100 µM, the TGI (HCC-2998 colon) was > 100 µM and the TGI (CAKI-1 renal) was > 100 µM. The TGI (HS 578T breast) was > 100 µM, the TGI (MDA-MB-435) was > 100 µM and the TGI (IGROV1 ovarian) was > 100 µM. The TGI (HCT-15 colon) was > 100 µM, the TGI (OVCAR-5 ovarian) was > 100 µM and the TGI (SF-539 CNS) was > 100 µM. The TGI (HCT-116 colon) was > 100 µM, the TGI (PC-3 prostate) was > 100 µM and the TGI (MALME-3M melanoma) was > 100 µM. The TGI (MDA-N) was > 100 µM, the TGI (COLO 205 colon) was > 100 µM and the TGI (OVCAR-8 ovarian) was > 100 µM. For the same molecule, the TGI (BT-549 breast) was > 100 µM, the TGI (KM12 colon) was > 100 µM and the TGI (ACHN renal) was > 100 µM. The TGI (SK-MEL-2 melanoma) was > 100 µM, the TGI (OVCAR-3 ovarian) was > 100 µM and the TGI (UACC-257 melanoma) was > 100 µM. The TGI (RXF 393 renal) was > 100 µM, the TGI (K-562 leukemia) was > 100 µM and the TGI (SK-MEL-28 melanoma) was > 100 µM. The TGI (MCF7 breast) was > 100 µM, the TGI (SN12C renal) was > 100 µM and the TGI (NCI-H460 lung) was > 100 µM. For the same molecule, the TGI (SNB-75 CNS) was > 100 µM, the TGI (U251 CNS) was > 100 µM and the TGI (T-47D breast) was > 100 µM. For the same molecule, the TGI (SF-268 CNS) was > 100 µM, the TGI (MDA-MB-231 breast) was > 100 µM and the TGI (HOP-92 NSCLC) was > 100 µM. The TGI (DU-145 prostate) was > 100 µM, the TGI (SW-620 colon) was > 100 µM and the TGI (NCI-H226 lung) was > 100 µM. For the same molecule, the TGI (SK-MEL-5 melanoma) was > 100 µM, the TGI (UO-31 renal) was > 100 µM and the TGI (786-0 renal) was > 100 µM. For the same molecule, the TGI (HOP-62 NSCLC) was > 100 µM, the TGI (TK-10 renal) was > 100 µM and the TGI (A498 renal) was > 100 µM. For the same molecule, the TGI (EKVX NSCLC) was > 100 µM, the TGI (NCI/ADR-RES ovarian) was > 100 µM and the TGI (NCI-H522 lung) was > 100 µM. For the same molecule, the TGI (M14 melanoma) was > 100 µM, the TGI (UACC-62 melanoma) was > 100 µM and the TGI (A549 NSCLC) was > 100 µM. For the same molecule, the TGI (HT29 colon) was > 100 µM, the TGI (SK-OV-3 ovarian) was > 100 µM and the TGI (SNB-19 CNS) was > 100 µM. The TGI (LOX IMVI melanoma) was > 100 µM.

In the case of `Brc1ccc(C2(N3CCCCC3)CCCCC2)s1`, the TGI (OVCAR-4 ovarian) is reported as > 100 µM, the TGI (RPMI-8226 leukemia) is reported as 39.5 µM and the TGI (NCI-H23 lung) is reported as > 100 µM. The TGI (SF-295 CNS) was > 100 µM, the TGI (HCC-2998 colon) was 35.3 µM and the TGI (CAKI-1 renal) was > 100 µM. For the same molecule, the TGI (HS 578T breast) was > 100 µM, the TGI (MDA-MB-435) was 73.3 µM and the TGI (IGROV1 ovarian) was > 100 µM. For the same molecule, the TGI (OVCAR-5 ovarian) was > 100 µM, the TGI (HCT-116 colon) was > 100 µM and the TGI (PC-3 prostate) was > 100 µM. For the same molecule, the TGI (MALME-3M melanoma) was 94 µM, the TGI (MDA-N) was > 100 µM and the TGI (HL-60(TB) leukemia) was 41.8 µM. For the same molecule, the TGI (BT-549 breast) was > 100 µM, the TGI (KM12 colon) was > 100 µM and the TGI (ACHN renal) was > 100 µM. For the same molecule, the TGI (CCRF-CEM leukemia) was 39.2 µM, the TGI (SK-MEL-2 melanoma) was 37 µM and the TGI (OVCAR-3 ovarian) was > 100 µM. It also gave a TGI (UACC-257 melanoma) of 94.6 µM, a TGI (RXF 393 renal) of 33.3 µM and a TGI (SR leukemia) of 44.3 µM. The TGI (K-562 leukemia) was 52.5 µM, the TGI (MCF7 breast) was > 100 µM and the TGI (SN12C renal) was > 100 µM. For the same molecule, the TGI (NCI-H460 lung) was 84.8 µM, the TGI (U251 CNS) was > 100 µM and the TGI (T-47D breast) was 49.5 µM. The TGI (SF-268 CNS) was > 100 µM, the TGI (MDA-MB-231 breast) was > 100 µM and the TGI (HOP-92 NSCLC) was 51.2 µM. The TGI (DU-145 prostate) was > 100 µM, the TGI (SW-620 colon) was > 100 µM and the TGI (SK-MEL-5 melanoma) was 22.3 µM. The TGI (UO-31 renal) was > 100 µM, the TGI (786-0 renal) was > 100 µM and the TGI (HOP-62 NSCLC) was > 100 µM. For the same molecule, the TGI (TK-10 renal) was > 100 µM, the TGI (A498 renal) was > 100 µM and the TGI (EKVX NSCLC) was > 100 µM. For the same molecule, the TGI (MOLT-4 leukemia) was 34.2 µM, the TGI (NCI-H522 lung) was > 100 µM and the TGI (M14 melanoma) was 71.4 µM. The TGI (UACC-62 melanoma) was > 100 µM, the TGI (A549 NSCLC) was > 100 µM and the TGI (HT29 colon) was > 100 µM. For the same molecule, the TGI (SK-OV-3 ovarian) was > 100 µM, the TGI (SNB-19 CNS) was > 100 µM and the TGI (LOX IMVI melanoma) was 29 µM.
